Literature values, collected in patent US5525634A, “Colonic drug delivery system” (priority 1994, dated 1996).

Assays:
[1] = small intestinal mucosa / esterases
morphine-dependent rats = conditions: for time to diarrhea: direct colonic administration; for time to diarrhea / time to diarrhea, withdrawal behavior and tail skin temperature response: morphine-dependent rats; for time to diarrhea, withdrawal behavior and tail skin temperature response: oral administration

## CC(=O)Oc1ccc(C(c2ccc(OC(C)=O)cc2)c2ccccn2)cc1 [bisacodyl]
[1]
  passage through / cleavage in the small intestine: readily cleaved by the esterases in the small intestine

## C=C1CCC2(O)C3Cc4ccc(OC5OC(C(=O)O)C(O)C(O)C5O)c5c4C2(CCN3CC2CC2)C1O5 (stereo not shown) [nalmefene glucuronide]
morphine-dependent rats
  time to diarrhea: 5 to 8 min
  activity on subcutaneous administration: inactive

## C=C1CC[C@@]2(O)[C@H]3Cc4ccc(O)c5c4[C@@]2(CCN3CC2CC2)[C@H]1O5 [nalmefene]
morphine-dependent rats
  time to diarrhea, withdrawal behavior and tail skin temperature response: ≤ 15 min

## C=CCN1CC[C@]23c4c5ccc(O[C@@H]6O[C@H](C(=O)O)[C@@H](O)[C@H](O)[C@H]6O)c4O[C@H]2C(=O)CC[C@@]3(O)[C@H]1C5 [naloxone glucuronide]
morphine-dependent rats
  time to diarrhea: 5 to 8 min
  activity on subcutaneous administration: inactive

## C=CCN1CC[C@]23c4c5ccc(O)c4O[C@H]2C(=O)CC[C@@]3(O)[C@H]1C5 [naloxone]
morphine-dependent rats
  time to diarrhea, withdrawal behavior and tail skin temperature response: ≤ 15 min
